Publication PMC7566811 (Bioorganic & medicinal chemistry, 2010)
Structures can show the parent of a compound that is named as a salt.

Tests used:
[1] = ref 6a; cited from earlier work
[2] = Single dose pharmacokinetics in rats; conditions: rat; for AUC: 30 mg/kg po, normalized to a dose of 30 mg/kg
[3] = biological target: human CCR5 (Homo sapiens, UniProt P51681); assay: Inhibition of calcium mobilization of hCCR5/CHO cells stimulated with MIP-1α; type: cell-based
[4] = Oral cassette dosing PK; type: in vivo
[5] = system: T cell tropic (X4) HIV-1; assay: Anti-HIV activity against X4 HIV-1; type: cell-based

human CCR5, sequence (P51681 whole entry): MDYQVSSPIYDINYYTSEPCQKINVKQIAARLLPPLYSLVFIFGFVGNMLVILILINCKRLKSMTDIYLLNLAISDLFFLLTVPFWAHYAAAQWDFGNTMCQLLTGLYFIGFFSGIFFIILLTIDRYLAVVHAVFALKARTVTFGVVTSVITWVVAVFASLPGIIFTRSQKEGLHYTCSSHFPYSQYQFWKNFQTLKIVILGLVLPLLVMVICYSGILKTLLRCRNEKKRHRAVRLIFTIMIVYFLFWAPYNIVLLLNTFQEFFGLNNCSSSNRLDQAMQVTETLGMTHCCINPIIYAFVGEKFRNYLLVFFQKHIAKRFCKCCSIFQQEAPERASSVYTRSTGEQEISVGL

For CCCCN1C(=O)C(CC2CCCCC2)NC(=O)C12CCN(Cc1ccc(Oc3ccccc3)cc1)CC2.Cl (stereo not drawn) [Compound 1a, 1-Butyl-3-(cyclohexylmethyl)-9-(4-phenoxybenzyl)-1,4,9-triazaspiro[5.5]undecane-2,5-dione hydrochloride], the Cytotoxicity [1] is listed as “minimal”.

For CCCCN1C(=O)C(CC(C)C)NC(=O)C12CCN(Cc1ccc(Oc3ccccc3)cc1)CC2.Cl (stereo not drawn) [Compound 1b, 1-Butyl-3-isobutyl-9-(4-phenoxybenzyl)-1,4,9-triazaspiro[5.5]undecane-2,5-dione hydrochloride], the Cytotoxicity [1] is given as “minimal”.

With CC(C)CC1NC(=O)C2(CCN(Cc3ccc(Oc4ccccc4)cc3)CC2)N(CCC(C)O)C1=O.Cl (stereo not drawn) [Compound 4, 1-(3-Hydroxybutyl)-3-isobutyl-9-(4-phenoxybenzyl)-1,4,9-triazaspiro[5.5]undecane-2,5-dione hydrochloride] the BA ([2]; 30 mg/kg po vs 3 mg/kg iv) was 34.1%.

In the case of CCCCN1C(=O)C(COC)NC(=O)C12CCN(Cc1ccc(Oc3ccccc3)cc1)CC2 (stereo not drawn) [Compound 13, 1-Butyl-3-(methoxymethyl)-9-(4-phenoxybenzyl)-1,4,9-triazaspiro[5.5]undecane-2,5-dione hydrochloride], the IC50 [3] is reported as 320 nM.

For CCCCN1C(=O)[C@H](CC2CCCCC2)NC(=O)C12CCN(Cc1ccc(Oc3ccc(O)cc3)cc1)CC2.Cl [Compound 36, (3S)-1-Butyl-3-(cyclohexylmethyl)-9-[4-(4-hydroxyphenoxy)benzyl]-1,4,9-triazaspiro[5.5]undecane-2,5-dione hydrochloride], the AUC [2] was 195 ng·h/mL.

For CCCCN1C(=O)[C@H](CC2CCCCC2)NC(=O)C12CCN(Cc1ccc(Oc3ccc(NS(C)(=O)=O)cc3)cc1)CC2.Cl [Compound 38, N-[4-(4-{[(3S)-1-Butyl-3-(cyclohexylmethyl)-2,5-dioxo-1,4,9-triazaspiro[5.5]undec-9-yl]methyl}phenoxy)phenyl]methanesulfonamide hydrochloride], the “AUC after oral cassette dosing” value [4] was “poor”.

In the case of CCCCN1C(=O)[C@H](CC2CCCCC2)NC(=O)C12CCN(Cc1ccc(Oc3ccc(S(N)(=O)=O)cc3)cc1)CC2.Cl [Compound 39, 4-(4-{[(3S )-1-Butyl-3-(cyclohexylmethyl)-2,5-dioxo-1,4,9-triazaspiro[5.5]undec-9-yl]methyl}phenoxy)benzenesulfonamide hydrochloride], the “AUC after oral cassette dosing” value [4] is reported as “poor”.

In the case of CCCCN1C(=O)[C@H](CC2CCCCC2)NC(=O)C12CCN(Cc1ccc(Oc3ccc(C(=O)O)cc3)cc1)CC2.Cl [Compound 40, 4-(4-{[(3S)-1-Butyl-3-(cyclohexylmethyl)-2,5-dioxo-1,4,9-triazaspiro[5.5]undec-9-yl]methyl}phenoxy)benzoic acid hydrochloride], the AUC [2] is reported as 10,532 ng h/mL and the “Activity against T cell tropic (X4) HIV-1” value [5] is reported as “inactive”.
